Experimental data published in patent US20230192704A1, “MONOCARBOXYLIC ACID TRANSPORTER 4 (MCT4) MODULATORS AND USES THEREOF” (Teon Therapeutics, Inc., priority 2020, published 2023).

Legend:
[1] = biological target: T1, MCT1 (Homo sapiens, UniProt P53985); experiment: MCT1 transport assay (L-lactate influx, BCECF-AM intracellular pH); assay type: cell-based; settings: BT-20 cells expressing exclusively MCT1
T1 construct: BT-20 cells—a triple negative human breast cancer cell line expressing exclusively MCT1 (confirmed by Western blotting); host or cells: BT-20
T1 sequence (P53985 1-500): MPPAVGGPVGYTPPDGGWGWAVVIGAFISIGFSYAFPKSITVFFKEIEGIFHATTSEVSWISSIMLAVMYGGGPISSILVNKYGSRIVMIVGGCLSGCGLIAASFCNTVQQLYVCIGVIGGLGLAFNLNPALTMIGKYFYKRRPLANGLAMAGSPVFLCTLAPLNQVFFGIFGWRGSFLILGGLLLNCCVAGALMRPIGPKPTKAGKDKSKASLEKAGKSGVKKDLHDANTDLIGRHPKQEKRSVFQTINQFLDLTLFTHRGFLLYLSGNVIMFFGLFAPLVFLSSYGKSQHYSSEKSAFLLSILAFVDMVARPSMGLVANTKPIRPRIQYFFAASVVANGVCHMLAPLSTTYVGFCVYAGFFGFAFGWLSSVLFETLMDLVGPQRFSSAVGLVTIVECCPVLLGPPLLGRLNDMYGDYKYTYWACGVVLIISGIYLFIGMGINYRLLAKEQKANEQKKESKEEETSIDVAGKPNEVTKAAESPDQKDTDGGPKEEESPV
T1 sequence (P35613 140-385 partner limits assumed): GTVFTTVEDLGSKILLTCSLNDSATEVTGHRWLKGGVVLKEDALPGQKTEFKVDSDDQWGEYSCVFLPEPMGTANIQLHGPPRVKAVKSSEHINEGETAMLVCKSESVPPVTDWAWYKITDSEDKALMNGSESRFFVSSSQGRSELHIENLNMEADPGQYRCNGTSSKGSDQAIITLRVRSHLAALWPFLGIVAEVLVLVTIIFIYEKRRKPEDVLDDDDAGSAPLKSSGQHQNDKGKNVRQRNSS
Source text: The following in vitro MCT4 and MCT1 transport assays were used to measure the effect of the compounds on L-lactate influx into two different cell lines: • a) MDA-MB-231 cells—a triple negative human breast cancer cell line expressing exclusively MCT4 (confirmed by Western blotting) was used for the MCT4 transport assay, • b) BT-20 cells—a triple negative human breast cancer cell line expressing exclusively MCT1 (confirmed by Western blotting) was used for the
(§1) The compounds' efficacy in both assays was determined by calculating their IC50 value (the concentration of test compound that inhibited 50% of biological activity).
(§2) MCT4 is predominantly involved in cellular efflux of lactate from the cell, preventing intracellular acidification. In the MCT4 in vitro transport system described here it was possible to drive influx of lactate in the cells and test the compounds efficacy in preventing this process. MCT1 is involved in influx-efflux of lactate, and because it is closely related to MCT4, it is a major selectivity target for MCT4 inhibitor. The MCT1 in vitro transport system described here measured the influx of lactate in the cells and ability of test compounds in preventing this process.
BT-20 (ATCC); Media: EMEM+10% FBS+1% PS
(§3) Tyrode's Solution pH7.4 (NaCl 119 mM; KC1 5 mM; HEPES pH7.4 25 mM; CaCl2 2 mM; MgCl2 2 mM; Glucose 6 g/L)
(§4) The following assay was performed to assess MCT4 (MDA-MB-231 cell line) or MCT1 (BT-20 cell line) activity by monitoring the intracellular pH change that accompanies lactate/proton transport using the pH-sensitive fluorescent dye BCECF-AM.
(§5) Compound preparation: The compounds were serially diluted in 100% DMSO 1:3 for 8 pts and transferred (500 nl) to a 96-well plate by Echo.
(§6) Cell preparation: Cells were briefly rinsed with 10 ml of PBS solution to remove all traces of serum, trypsinized (0.05% Trypsin-EDTA) at 25° C. for 2-3 minutes and washed twice with Tyrode's solution. The cell viability and concentration were determined using Vi-Cell. Cells were resuspended in Tyrode's solution.
(§7) Cells were loaded with the pH sensitive dye BCECF-AM (5 uM final concentration from the 30 mM DMSO stock solution) at 37° C. for 30 minutes before being washed twice to remove excess dye and resuspended to 2 million/ml cells in Tyrode's solution. Cells were seeded into a 96-well plate (200,000 cells/well) directly onto the test compound or a reference compound for 10 minutes at 37° C. Following incubation with test compounds, 25 ul of 30 mM Sodium-L-lactate was added. This addition was performed on the FlexStation III as a part of a real-time kinetic protocol. The ratio of cellular fluorescence at 535 nm after excitation at 490 nm/440 nm was measured over time for baseline (pre-lactate addition) and post-lactate addition for 60 sec with or without compounds present. Inhibitory concentration response curves were generated for compounds and their IC50 values calculated.

[2] = biological target: T2, MCT4 (Homo sapiens, UniProt O15427); experiment: MCT4 transport assay (L-lactate influx, BCECF-AM intracellular pH); assay type: cell-based; settings: MDA-MB-231 cells expressing exclusively MCT4
T2 construct: MDA-MB-231 cells—a triple negative human breast cancer cell line expressing exclusively MCT4 (confirmed by Western blotting); host or cells: MDA-MB-231
T2 sequence (O15427 2-465 limits assumed): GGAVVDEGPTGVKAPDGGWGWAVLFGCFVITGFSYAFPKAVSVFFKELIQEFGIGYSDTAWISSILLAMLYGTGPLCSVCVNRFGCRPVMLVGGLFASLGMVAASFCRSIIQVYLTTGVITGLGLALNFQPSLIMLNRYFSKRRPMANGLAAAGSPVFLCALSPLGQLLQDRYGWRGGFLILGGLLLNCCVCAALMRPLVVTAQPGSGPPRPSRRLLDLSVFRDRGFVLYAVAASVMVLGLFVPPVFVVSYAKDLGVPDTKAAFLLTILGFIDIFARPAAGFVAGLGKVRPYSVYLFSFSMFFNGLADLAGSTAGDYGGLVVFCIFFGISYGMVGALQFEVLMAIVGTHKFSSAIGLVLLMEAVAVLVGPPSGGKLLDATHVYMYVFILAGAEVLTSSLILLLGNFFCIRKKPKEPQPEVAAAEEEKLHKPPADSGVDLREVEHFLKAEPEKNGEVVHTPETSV
Method: as §1, §2, §3, §4, §5, §6, §7

IC50 [1] [nM]	IC50 [2] [nM]	SMILES
> 1000		Cc1nc2nc(C)c(O[C@@H]3CCN(c4ccc(-c5ccc(CN6CCOCC6)nn5)cc4)C3)c(C)n2n1 [Compound 1, (R)-4-((6-(4-(3-((2,5,7-trimethyl-[1,2,4]triazolo[1,5-a]pyrimidin-6-yl)oxy)pyrrolidin-1-yl)phenyl)pyridazin-3-yl)methyl)morpholine]
> 1000	100 to 499	Cc1cn2c(C)c(O[C@@H]3CCN(c4ccc(-c5ccc(CN6CCOCC6)nn5)cc4)C3)c(C)nc2n1 [Compound 2, (R)-4-((6-(4-(3-((2,5,7-trimethylimidazo[1,2-a]pyrimidin-6-yl)oxy)pyrrolidin-1-yl)phenyl)pyridazin-3-yl)methyl)morpholine]
> 1000	> 1000	Cc1nc2nc(C)c(C)n2c(C)c1O[C@@H]1CCN(c2ccc(-c3ccc(CN4CCOCC4)nn3)cc2)C1 [Compound 3, (R)-4-((6-(4-(3-((2,3,5,7-tetramethylimidazo[1,2-a]pyrimidin-6-yl)oxy)pyrrolidin-1-yl)phenyl)pyridazin-3-yl)methyl)morpholine]
> 1000	< 100	Cc1cc2nc(C)c(O[C@@H]3CCN(c4ccc(-c5ccc(CN6CCOCC6)nn5)cc4)C3)c(C)n2n1 [Compound 4, (R)-4-((6-(4-(3-((2,5,7-trimethylpyrazolo[1,5-a]pyrimidin-6-yl)oxy)pyrrolidin-1-yl)phenyl)pyridazin-3-yl)methyl)morpholine]
> 1000	< 100	Cc1nc2nc(C)c(O[C@@H]3CCN(c4cnc(C#CCN5CCOCC5)nc4)C3)c(C)n2n1 [Compound 5, (R)-4-(3-(5-(3-((2,5,7-trimethyl-[1,2,4]triazolo[1,5-a]pyrimidin-6-yl)oxy)pyrrolidin-1-yl)pyrimidin-2-yl)prop-2-yn-1-yl)morpholine]
> 1000	< 100	Cc1nc2nc(C)c(O[C@@H]3CCN(c4cnc(C56CCC(CN7CCOCC7)(CC5)CC6)nc4)C3)c(C)n2n1 [Compound 6, (R)-4-((4-(5-(3-((2,5,7-trimethyl-[1,2,4]triazolo[1,5-a]pyrimidin-6-yl)oxy)pyrrolidin-1-yl)pyrimidin-2-yl)bicyclo[2.2.2]octan-1-yl)methyl)morpholine]
> 1000	< 100	Cc1nc2nc(C)c(O[C@@H]3CCN(c4ccc(-c5ccc(CN6CC7(COC7)C6)nn5)cc4)C3)c(C)n2n1 [Compound 7, (R)-6-((6-(4-(3-((2,5,7-trimethyl-[1,2,4]triazolo[1,5-a]pyrimidin-6-yl)oxy)pyrrolidin-1-yl)phenyl)pyridazin-3-yl)methyl)-2-oxa-6-azaspiro[3.3]heptane]
> 1000	< 100	COC1CN(Cc2ccc(-c3ccc(N4CC[C@@H](Oc5c(C)nc6nc(C)nn6c5C)C4)cc3)nn2)C1 [Compound 8, (R)-6-((1-(4-(6-((3-methoxyazetidin-1-yl)methyl)pyridazin-3-yl)phenyl)pyrrolidin-3-yl)oxy)-2,5,7-trimethyl-[1,2,4]triazolo[1,5-a]pyrimidine]
> 1000	< 100	Cc1nc2nc(C)c(O[C@@H]3CCN(c4ccc(-c5ccc(CN6CC(N(C)C)C6)nn5)cc4)C3)c(C)n2n1 [Compound 9, (R)-N,N-dimethyl-1-((6-(4-(3-((2,5,7-trimethyl-[1,2,4]triazolo[1,5-a]pyrimidin-6-yl)oxy)pyrrolidin-1-yl)phenyl)pyridazin-3-yl)methyl)azetidin-3-amine]
> 1000	< 100	Cc1nc2nc(C)c(O[C@@H]3CCN(c4ccc(-c5ccc(CN6CC(S(C)(=O)=O)C6)nn5)cc4)C3)c(C)n2n1 [Compound 10, (R)-2,5,7-trimethyl-6-((1-(4-(6-((3-(methylsulfonyl)azetidin-1-yl)methyl)pyridazin-3-yl)phenyl)pyrrolidin-3-yl)oxy)-[1,2,4]triazolo[1,5-a]pyrimidine]
> 1000	100 to 499	Cc1nc2nc(C)c(O[C@@H]3CCN(c4ccc(-c5ccc(CN6CC(C(N)=O)C6)nn5)cc4)C3)c(C)n2n1 [Compound 11, (R)-1-((6-(4-(3-((2,5,7-trimethyl-[1,2,4]triazolo[1,5-a]pyrimidin-6-yl)oxy)pyrrolidin-1-yl)phenyl)pyridazin-3-yl)methyl)azetidine-3-carboxamide]
> 1000	< 100	Cc1nc2nc(C)c(O[C@@H]3CCN(c4ccc(-c5ccc(CN6CC(C(=O)N(C)C)C6)nn5)cc4)C3)c(C)n2n1 [Compound 12, (R)-N,N-dimethyl-1-((6-(4-(3-((2,5,7-trimethyl-[1,2,4]triazolo[1,5-a]pyrimidin-6-yl)oxy)pyrrolidin-1-yl)phenyl)pyridazin-3-yl)methyl)azetidine-3-carboxamide]
> 1000	< 100	Cc1nc2nc(C)c(O[C@@H]3CCN(c4ccc(-c5ccc(C(=O)N6CC7(COC7)C6)nn5)cc4)C3)c(C)n2n1 [Compound 13, (R)-(2-oxa-6-azaspiro[3.3]heptan-6-yl)(6-(4-(3-((2,5,7-trimethyl-[1,2,4]triazolo[1,5-a]pyrimidin-6-yl)oxy)pyrrolidin-1-yl)phenyl)pyridazin-3-yl)methanone]
> 1000	< 100	COC1CN(C(=O)c2ccc(-c3ccc(N4CC[C@@H](Oc5c(C)nc6nc(C)nn6c5C)C4)cc3)nn2)C1 [Compound 14, (R)-(3-methoxyazetidin-1-yl)(6-(4-(3-((2,5,7-trimethyl-[1,2,4]triazolo[1,5-a]pyrimidin-6-yl)oxy)pyrrolidin-1-yl)phenyl)pyridazin-3-yl)methanone]
> 1000	< 100	Cc1nc2nc(C)c(O[C@@H]3CCN(c4ccc(-c5ccc(C(=O)N6CC(N(C)C)C6)nn5)cc4)C3)c(C)n2n1 [Compound 15, (R)-(3-(dimethylamino)azetidin-1-yl)(6-(4-(3-((2,5,7-trimethyl-[1,2,4]triazolo[1,5-a]pyrimidin-6-yl)oxy)pyrrolidin-1-yl)phenyl)pyridazin-3-yl)methanone]
> 1000	< 100	Cc1nc2nc(C)c(O[C@@H]3CCN(c4ccc(-c5ccc(C(=O)N6CC(S(C)(=O)=O)C6)nn5)cc4)C3)c(C)n2n1 [Compound 16, (R)-(3-(methylsulfonyl)azetidin-1-yl)(6-(4-(3-((2,5,7-trimethyl-[1,2,4]triazolo[1,5-a]pyrimidin-6-yl)oxy)pyrrolidin-1-yl)phenyl)pyridazin-3-yl)methanone]
